What was measured:
Settings in all cases: exposure: 6-8 hpf to 5 dpf, scored at 6 dpf
[1] = test system: Danio rerio embryo/larva; experiment: max % larvae generally abnormal across tested concentrations; higher = more toxic; extreme values may be limits of the assay
[2] = test system: Danio rerio embryo/larva; experiment: max % larvae with spinal defects across tested concentrations; higher = more toxic; extreme values may be limits of the assay
[3] = test system: Danio rerio embryo/larva; experiment: max % larvae with blood pooling across tested concentrations; higher = more toxic; extreme values may be limits of the assay
[4] = test system: Danio rerio embryo/larva; experiment: max % larvae with craniofacial defects across tested concentrations; higher = more toxic; extreme values may be limits of the assay
[5] = test system: Danio rerio embryo/larva; experiment: max % larvae with edema across tested concentrations; higher = more toxic; extreme values may be limits of the assay
[6] = test system: Danio rerio embryo/larva; experiment: max % larvae with tail defects across tested concentrations; higher = more toxic; extreme values may be limits of the assay
[7] = test system: Danio rerio embryo/larva; experiment: max % larvae with pigmentation defects across tested concentrations; higher = more toxic
[8] = test system: Danio rerio embryo/larva; experiment: max % larvae with uninflated swim bladder across tested concentrations; higher = more toxic; extreme values may be limits of the assay
[9] = test system: Danio rerio embryo/larva; experiment: max % larvae with abnormal position across tested concentrations; higher = more toxic; extreme values may be limits of the assay

O=C(O)C(F)(F)C(F)(F)C(F)(F)C(F)(F)C(F)(F)C(F)(F)F [Perfluoroheptanoic acid] (max tested concentration (log10 uM): 2)
8.33%: max % larvae generally abnormal across tested concentrations [1] | max % larvae [5]
0%: max % larvae [2] | max % larvae [3] | max % larvae [4] | max % larvae [6] | max % larvae [7] | max % larvae [9]
16.7%: max % larvae [8]

O=C(Cl)C(F)(F)C(F)(F)C(F)(F)C(F)(F)C(F)(F)C(F)(F)F [Perfluoroheptanoyl chloride] (max tested concentration (log10 uM): 2)
16.7%: max % larvae generally abnormal across tested concentrations [1] | max % larvae [4] | max % larvae [5] | max % larvae [8]
0%: max % larvae [3] | max % larvae [7]
4.17%: max % larvae [9]
8.33%: max % larvae [2] | max % larvae [6]

O=C(O)C(F)(F)C(F)(F)C(F)(F)C(F)(F)C(=O)O [Perfluorohexanedioic acid] (max tested concentration (log10 uM): 2)
0%: max % larvae generally abnormal across tested concentrations [1] | max % larvae [2] | max % larvae [3] | max % larvae [4] | max % larvae [5] | max % larvae [6] | max % larvae [7] | max % larvae [8] | max % larvae [9]

O=C(O)C(F)(F)C(F)(F)C(F)(F)C(F)(F)C(F)(F)F [Perfluorohexanoic acid] (max tested concentration (log10 uM): 2)
0%: max % larvae generally abnormal across tested concentrations [1] | max % larvae [2] | max % larvae [3] | max % larvae [4] | max % larvae [5] | max % larvae [6] | max % larvae [7] | max % larvae [8] | max % larvae [9]

NC(=O)C(F)(F)C(F)(F)C(F)(F)C(F)(F)C(F)(F)C(F)(F)C(F)(F)F [Perfluorooctanamide] (max tested concentration (log10 uM): 2)
0%: max % larvae generally abnormal across tested concentrations [1] | max % larvae [2] | max % larvae [3] | max % larvae [4] | max % larvae [5] | max % larvae [6] | max % larvae [7] | max % larvae [8] | max % larvae [9]

N=C(N)C(F)(F)C(F)(F)C(F)(F)C(F)(F)C(F)(F)C(F)(F)C(F)(F)F [Perfluorooctanamidine] (max tested concentration (log10 uM): 1)
4.17%: max % larvae [5]
16.7%: max % larvae [3]
0%: max % larvae [2] | max % larvae [4] | max % larvae [6] | max % larvae [7] | max % larvae [8] | max % larvae [9]
8.33%: max % larvae generally abnormal across tested concentrations [1]

O=C(O)C(F)(F)C(F)(F)C(F)(F)C(F)(F)C(F)(F)C(F)(F)C(F)(F)F [Perfluorooctanoic acid] (max tested concentration (log10 uM): 2)
0%: max % larvae [2] | max % larvae [3] | max % larvae [4] | max % larvae [7]
16.7%: max % larvae generally abnormal across tested concentrations [1] | max % larvae [5] | max % larvae [8]
4.17%: max % larvae [6]
8.33%: max % larvae [9]

NC(=O)C(F)(F)C(F)(F)C(F)(F)C(F)F [Perfluoropentanamide] (max tested concentration (log10 uM): 2)
0%: max % larvae generally abnormal across tested concentrations [1] | max % larvae [2] | max % larvae [3] | max % larvae [4] | max % larvae [5] | max % larvae [6] | max % larvae [7] | max % larvae [8] | max % larvae [9]

O=C(O)C(F)(F)C(F)(F)C(F)(F)C(=O)O [Perfluoropentanedioic acid] (max tested concentration (log10 uM): 2)
0%: max % larvae generally abnormal across tested concentrations [1] | max % larvae [2] | max % larvae [3] | max % larvae [4] | max % larvae [5] | max % larvae [6] | max % larvae [7] | max % larvae [8] | max % larvae [9]

O=C(O)C(F)(F)C(F)(F)C(F)(F)C(F)(F)F [Perfluoropentanoic acid] (max tested concentration (log10 uM): 2)
16.7%: max % larvae generally abnormal across tested concentrations [1] | max % larvae [5] | max % larvae [8]
0%: max % larvae [2] | max % larvae [3] | max % larvae [4] | max % larvae [6] | max % larvae [7]
4.17%: max % larvae [9]

O=C(O)C(F)(F)C(F)(F)F [Perfluoropropanoic acid] (max tested concentration (log10 uM): 2)
0%: max % larvae generally abnormal across tested concentrations [1] | max % larvae [2] | max % larvae [3] | max % larvae [4] | max % larvae [5] | max % larvae [6] | max % larvae [7] | max % larvae [8] | max % larvae [9]

O=C(O)C(F)(F)C(F)(F)C(F)(F)C(F)(F)C(F)(F)C(F)(F)C(F)(F)C(F)(F)C(F)(F)C(F)(F)C(F)(F)C(F)(F)C(F)(F)F [Perfluorotetradecanoic acid] (max tested concentration (log10 uM): 1.30103)
2.27%: max % larvae generally abnormal across tested concentrations [1]
0%: max % larvae [2] | max % larvae [3] | max % larvae [4] | max % larvae [5] | max % larvae [6] | max % larvae [7] | max % larvae [9]
4.55%: max % larvae [8]

O=C(O)C(F)(F)C(F)(F)C(F)(F)C(F)(F)C(F)(F)C(F)(F)C(F)(F)C(F)(F)C(F)(F)C(F)(F)C(F)(F)C(F)(F)F [Perfluorotridecanoic acid] (max tested concentration (log10 uM): 1.30103)
16.7%: max % larvae generally abnormal across tested concentrations [1] | max % larvae [3] | max % larvae [4] | max % larvae [5] | max % larvae [8]
8.33%: max % larvae [9]
0%: max % larvae [2] | max % larvae [6] | max % larvae [7]

From the supplement of paper PMC11281043
